Molecular target: T1, KCNJ3/KCNJ5^WT (Homo sapiens, UniProt P48544)
T1 construct: GFP; expressed in transfected cells; host or cells: HEK293T (American Type Culture Collection), transient co-transfection
T1 sequence (P48544 1-419): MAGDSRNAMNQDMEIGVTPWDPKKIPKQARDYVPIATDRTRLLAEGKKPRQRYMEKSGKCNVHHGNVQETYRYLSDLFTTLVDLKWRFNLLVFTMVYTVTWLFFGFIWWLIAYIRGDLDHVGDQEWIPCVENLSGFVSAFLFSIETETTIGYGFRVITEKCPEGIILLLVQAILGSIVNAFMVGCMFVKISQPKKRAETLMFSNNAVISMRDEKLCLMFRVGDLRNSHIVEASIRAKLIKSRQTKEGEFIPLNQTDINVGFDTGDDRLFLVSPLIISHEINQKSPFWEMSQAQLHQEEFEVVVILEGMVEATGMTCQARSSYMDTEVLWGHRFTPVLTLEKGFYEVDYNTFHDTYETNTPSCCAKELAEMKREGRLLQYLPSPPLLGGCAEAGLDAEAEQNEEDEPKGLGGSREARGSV
T1 sequence (P48549 1-501 partner): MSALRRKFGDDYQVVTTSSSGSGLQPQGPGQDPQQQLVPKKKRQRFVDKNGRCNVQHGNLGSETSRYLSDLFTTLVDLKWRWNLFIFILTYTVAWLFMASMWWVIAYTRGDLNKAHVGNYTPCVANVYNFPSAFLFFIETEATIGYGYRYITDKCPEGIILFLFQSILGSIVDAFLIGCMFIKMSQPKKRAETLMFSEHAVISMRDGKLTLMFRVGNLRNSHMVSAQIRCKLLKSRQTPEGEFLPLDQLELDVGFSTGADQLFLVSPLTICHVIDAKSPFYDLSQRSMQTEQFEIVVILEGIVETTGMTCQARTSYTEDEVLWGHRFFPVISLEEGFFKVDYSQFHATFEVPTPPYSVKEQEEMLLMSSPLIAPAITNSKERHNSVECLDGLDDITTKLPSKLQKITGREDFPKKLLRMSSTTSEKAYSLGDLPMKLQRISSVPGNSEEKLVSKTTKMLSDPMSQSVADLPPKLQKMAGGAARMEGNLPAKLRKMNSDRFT
Assay: Perforated whole-cell patch clamp, KCNJ3/KCNJ5^WT heterotetramers in HEK293T cells
Type: cell-based
Details: 20 μM, 10 minutes after addition
Protocol: HEK293T cells (American Type Culture Collection) were used for transient expression of GFP-tagged KCNJ5 or KCNJ3. The cells were grown in Dulbecco's modified Eagle medium (DMEM; Invitrogen) supplemented with 10% FBS (Invitrogen) in 5% CO2 and 95% air at 37° C. Cells were grown to 50-70% confluence for transfection, and the corresponding cDNAs (Choi et al., 2011, Science 331:768-772) were simultaneously applied to the cells using TurboFect transfection reagent according to the manufacturer's protocol (Fermentas). […]
Within 24 hr after transfection, the cells were treated with trypsin-containing medium (TrypLE Express) (Gibco) for 10 minutes to detach the cells. […] Fluorescence signal (an indication of positive transfection) was detected with an intensified video imaging system including a SIT 68 camera (Long Island Industries). […] After forming a high resistance seal (>2 GΩ), the membrane capacitance was monitored until the whole-cell patch configuration was formed. The cell membrane capacitance was measured and compensated. The K/cation currents were measured from −80 mV to 20 mV with 20 mV steps by an Axon 200A patch-clamp amplifier. The currents were low-pass filtered at 1 KHz and digitized by an Axon interface (Digidata 1200) and were analyzed using the pClamp software system 9 (Axon). […]

CC[C@H]1OC(=O)[C@H](C)[C@@H](O[C@H]2C[C@@](C)(OC)[C@@H](O)[C@H](C)O2)[C@H](C)[C@@H](O[C@@H]2O[C@H](C)C[C@H](N(C)C)[C@H]2O)[C@](C)(O)C[C@@H](C)/C(=N\OCOCCOC)[C@H](C)[C@@H](O)[C@]1(C)O [Roxithromycin, roxithromycin] was tested, and the “inhibition of potassium currents in KCNJ3/KCNJ5^WT channels” value was “no inhibition”.

Source: US11484543B2, “Compositions and methods for diagnosing and treating diseases and disorders associated with mutant KCNJ5” (The Rockefeller University, priority 2017, dated 2022)
